From patent US11014947B2, “Lipophenol compounds and uses thereof” (INSTITUT NATIONAL DE LA SANTE ET DE LA RECHERCHE MEDICALE …, priority 2014, dated 2021)
Like-named read-outs stand apart in the source and are kept apart here.

Key:
[1] = tested on: ARPE-19 cell lines; details: for % Survival: untreated cells = 100; for cell survival: text summary of Table 1, AtR 25 μM
Method: The biological assay is based on the measure of cell survival after treatment with the lipophenol prior incubation (pre-incubation process) with the carbonyl stressor AtR. The toxic AtR concentration (25 μM) was determined to reduce cell survival by 60 to 70%. Results are expressed as % of cell survival in treated (lipophenol/all-trans-retinal) vs untreated cells (taken as 100%).
ARPE-19 cells were settled in 96-well plates (3×10^4 cells/well) and cultured 24 h to reach confluence before drug treatment. Cell cultures received a serum-free medium containing drugs at different concentrations (10-40 μM) for one hour and trans-retinal (25 μM) was added for 4 more hours before rinsing with medium. The viability of cells in triplicate samples was determined 16-20 h after with a MTT colorimetric assay. After 2 h incubation with 0.5 mg/ml MU, insoluble purple formazan produced was dissolved in DMSO. The absorbance at 570 nm and 655 nm of individual wells was measured by a microplate reader (BioRad 550).

[2] = tested on: RPE primary cells; assay: Primary RPE cultures, pre-treatment 24 h, H2O2 450 μM 2 h, cell viability assay; format: cell-based; details: H2O2 450 μM 2 h (FIG. 7)
Method: a. Pre-treatment 24 h, H2O2 450 μM 2 h; cell viability assay

[3] = tested on: RPE primary cells; assay: Primary RPE cultures, co-incubation 4 h with atRAL 25 μM, cell viability assay; format: cell-based; details: co-incubation 4 h with atRAL 25 μM (FIG. 9)
Method: c. Co-incubation 4 h with atRAL 25 μM; cell viability assay
To compare the anti-carbonyl efficacies of phloroglucinol (22% gain of survival) and PG-OiP-DHA (69%) in a condition to probe their scavenging properties in primary RPE cells (FIG. 9).

[4] = tested on: ARPE-19 cell lines; assay: ARPE-19 cell survival, co-treatment with atRAL 25 μM; format: cell-based
Method: Co-treatment were performed with lipophenols onto ARPE-19 (FIG. 4). Incubation for 4 h with atRAL decreased cell viability to 35%. The protection of ARPE-19 by phloroglucinol (PG) was dose-dependent but weak (less than 10%). In contrast, most of the PG derivatives were more protective, in particular the presence of two or three DHA linked to PG provided a strong protection (up to 73% survival), as well as the mono-alkylation (methyl and isopropyl) were sufficient to protect 60% of cells. PG-OiP-DHA was confirmed to be among the most efficient (74%).

[5] = tested on: RPE primary cells; assay: Primary RPE cultures, pre-treatment 24 h, atRAL 25 μM 4 h, cell viability assay; format: cell-based; details: atRAL 25 μM 4 h (FIG. 8)
Method: b. Pre-treatment 24 h, atRAL 25 μM 4 h; cell viability assay

[6] = tested on: ARPE-19; assay: atRAL-induced cell death, Annexin V-FITC / propidium iodide flow cytometry; format: cell-based; details: 4 h
Method: Further investigations were made to define the atRAL-induced cell death (apoptotic versus necrotic) and validate the protective effect of PG-OiP-DHA (FIG. 6). Cells were incubated for 4 h with atRAL 25 μM, PG-OiP-DHA (compound 13b) 40 μM, or both. Treated ARPE-19 were labeled with Annexin V-FITC (A) and propidium iodide (PI) to separate by flow cytometry healthy cells (no labeling), early apoptosis (A+ and PI−) and necrotic cells (A+ and PI+). In CTL or PG-OiP-DHA-treated cells only 6 to 10% died. After 4 h atRAL, cell death reached 46%, mainly at necrotic stage (41%).

[7] = tested on: complexes CI and CII; assay: Mitochondrial respiration in ARPE-19 cell line (oxygraph); format: cell-based
From the text: Oxidative stress originates from physiological reactions taking place practically inside each cell of an organism. The production of reactive oxygen species (ROS) accompanies, for example, oxidative phosphorylation-derived ATP-based energy metabolism which takes place in the mitochondria of a cell. Under physiological conditions, ROS are neutralized by effective enzymatic and non-enzymatic defense mechanisms, contributing to the maintenance of a proper balance. However, an excess of ROS, resulting from their overproduction in pathophysiological conditions, will disturb the equilibrium and lead eventually to deleterious consequences for the cell. Maeda et al. (JBC 284(22), 2009) have reported that atRal impairs mitochondrial oxidative phosphorylation. Therefore, mitochondrial respiration was measured in ARPE-19 cell line using oxygraph after exposure to 25 μM atRal and/or 40 μM 13b (FIG. 3).

[8] = tested on: neural retina cell cultures; assay: Cytoprotection in neural retina cell cultures exposed to atRal (MTT); format: cell-based; details: 13b 10 to 100 μM, atRal 50-75-100 μM added 1 h after, 4 h co-incubation
Method: The effect of compound 13b on cell viability was examined after co-incubation with atRal. Cell cultures were incubated with 13b (10 to 100 μM) and atRal (50-75-100 μM) was added 1 h after for a 4 h co-incubation. Cells were then cultured in serum-free medium for 16-20 h and their viability was determined with a MTT assay.

[9] = tested on: mitochondrial respiratory chain (MRC) complex; assay: Mitochondrial respiratory chain complex enzymatic activities and protein expression; format: cell-based; details: atRAL treatment with PG-OiP-DHA (FIG. 5, FIG. 14)
From the text: In a cellular context, PG-OiP-DHA (compound 13b) has been shown able to partially restore mitochondrial oxidative respiration impaired by the atRAL (example 10). Because this repair might be produced by targeting the whole oxidative chain or each individual respiratory complex, this potency was further investigated by measuring the intrinsic activity of each mitochondrial respiratory chain (MRC) complex (enzymology) and their level of protein expression (FIG. 5). […] This was supported by the loss of MRC protein expression.
Several experiments were made to validate the efficacy of PG-OiP-DHA in the protection of the mitochondrial activity (FIG. 14).

[10] = compound 10 μM 1 h, then AtR 25 μM 4 h, MTT after 16-20 h
[11] = compound 40 μM 1 h, then AtR 25 μM 4 h, MTT after 16-20 h
[12] = co-incubation atRAL 25 μM + PG-OiP-DHA 40 μM

Compound: CC(C)Oc1cc(O)cc(O)c1 [Compound 9b, 5-isopropoxybenzene-1,3-diol, reference compound]
- % Survival [1, 10]: 30.6 ± 1.2%
- % Survival [1, 11]: 32.7 ± 1.8%

Compound: CC/C=C\C/C=C\C/C=C\C/C=C\C/C=C\C/C=C\CCC(=O)Oc1cc(OC(=O)CC/C=C\C/C=C\C/C=C\C/C=C\C/C=C\C/C=C\CC)cc(OC(=O)CC/C=C\C/C=C\C/C=C\C/C=C\C/C=C\C/C=C\CC)c1 [Compound 8, (4,4′,4″,7,7′,7″,10,10′,10″,13,13′,13″,16,16′,16″,19,19′,19″Z)-benzene-1,3,5-triyl tridocosa-4,7,10,13,16,19-hexaenoate]
- % Survival [1, 10]: 33.3 ± 4.1%
- % Survival [1, 11]: 47.7 ± 3.2%
- cell survival [1]: 50%

Compound: CC/C=C\C/C=C\C/C=C\C/C=C\C/C=C\C/C=C\CCC(=O)O [DHA, docosahexaenoic acid, reference compound]
- % Survival [1, 10]: 23.5 ± 2.7%
- % Survival [1, 11]: 7.3 ± 5.0%

Compound: Oc1cc(O)cc(O)c1 [Phloroglucinol, phloroglucinol, reference compound]
- gain of survival (anti-oxidant efficacy) [2]: 10%
- increase of RPE cell survival ([1]; 40 μM, AtR 25 μM): 10%
- % Survival [1, 10]: 35.5 ± 3.3%
- % Survival [1, 11]: 41.6 ± 9.2%
- gain of survival (anti-carbonyl efficacy, scavenging) [3]: 22%
- protection of ARPE-19 ([4]; co-treatment with atRAL 25 μM, doses 5-80 μM): less than 10%
- gain of survival (anti-carbonyl efficacy) [5]: 18%

Compound: CC1=C(/C=C/C(C)=C/C=C/C(C)=C/C=O)C(C)(C)CCC1 [AtR, all-trans-retinal, reference compound]
- cell death ([6]; atRAL 25 μM alone): 46%
- necrotic stage cells ([6]; atRAL 25 μM alone): 41%
- % Survival ([1]; AtR 25 μM alone): 29.1 ± 5.4%
- cell viability ([4]; atRAL 25 μM alone, 4 h): 35%
- inhibition of the activity of complexes CI and CII ([7]; 25 μM atRal alone): strongly inhibits

Compound: CC/C=C\C/C=C\C/C=C\C/C=C\C/C=C\C/C=C\CCC(=O)Oc1cc(O)cc(OC(C)C)c1 [Compound 13b, (4,7,10,13,16,19 Z)-3-hydroxy-5-isopropoxyphenyl docosa-4,7,10,13,16,19-hexaenoate]
- necrotic cells [6, 12]: 16%
- total cell death [6, 12]: 18%
- gain of survival (anti-oxidant efficacy) [2]: 20%
- % Survival [1, 10]: 43.2 ± 7.5%
- % Survival [1, 11]: 66.8 ± 8.6%
- gain of survival (anti-carbonyl efficacy, scavenging) [3]: 69%
- reversal of atRal cytotoxicity [8]: robustly reversed
- preservation of complex II and IV enzymatic activities affected by atRAL [9]: significantly preserved
- survival ([4]; co-treatment with atRAL 25 μM 4 h, doses 5-80 μM (FIG. 4)): 74%
- gain of survival (anti-carbonyl efficacy) [5]: 42%
- reversal of atRal inhibition of complexes CI and CII ([7]; 40 μM 13b with 25 μM atRal): partially reverse this inhibition
- inhibition of the activity of each complex by the compound alone ([7]; 40 μM 13b, no atRal): no significant inhibition

Compound: CC/C=C\C/C=C\C/C=C\C/C=C\C/C=C\C/C=C\CCC(=O)Oc1cc(O)cc(OC)c1 [Compound 13a, (4,7,10,13,16,19 Z)-3-hydroxy-5-methoxyphenyl docosa-4,7,10,13,16, 19-hexaenoate]
- % Survival [1, 10]: 32.6 ± 3.7%
- % Survival [1, 11]: 44.9 ± 1.9%
- cell survival [1]: as active as 8

Compound: CC/C=C\C/C=C\C/C=C\C/C=C\C/C=C\C/C=C\CCC(=O)Oc1ccc(/C=C/c2cc(O)cc(O)c2)cc1 [Compound 20, (4,7,10,13,16,19 Z)-4-((E)-3,5-dihydroxyphenylstyryl)phenyl docosa-4,7,10,13,16,19-hexaenoate]
- protective effect ([4]; co-treatment with atRAL 25 μM 4 h (FIG. 4)): very potent
